One data set relates to HL-60. As to the kind of experiment: In vitro cytotoxicity (GI50), leukemia cell line. To be noted: Homo sapiens. Type of data set: cell-based. The protocol:
(§1) The in vitro cytotoxicity was measured in the following cell lines: NCI-H460 (ATCC #HTB-177) (non-small cell lung), HCT-116 (ATCC #CCL-247) (colorectal), HL-60 (ATCC #CCL-240) (leukemia), and MDA-MB-231 (ATCC #HTB-26) (breast). Table 4. Growth Inhibition (GI50) Values (µM) for Selected Cell Lines.

The next data set has as its system NCI-H460. Description: In vitro cytotoxicity (GI50), non-small cell lung cancer cell line. The note with it: Homo sapiens. How it is done:
as §1

Another data set concerns HCT-116. Description: In vitro cytotoxicity (GI50), colorectal cancer cell line. To be noted: Homo sapiens. How it is done:
as §1

Another data set concerns MDA-MB-231. Description: In vitro cytotoxicity (GI50), breast cancer cell line. To be noted: Homo sapiens. The protocol:
as §1

For data set [1] the following is noted: following subcutaneous administration; reported; cited from earlier work.
Data set [2] relates to L1210. As to the kind of experiment: In vitro cytotoxicity, leukemia cell line. The note with it: for IC50: Mus musculus, L1210, read-out: In vitro cytotoxicity Leukemia L1210.
Another data set has as its system ACHN. Description: In vitro cytotoxicity, renal cancer cell line. The note with it: Homo sapiens, Table 1, asterisk not explained. Type of data set: cell-based.
Another data set has as its system OVCAR-8. As to the kind of experiment: In vitro cytotoxicity, ovarian cancer cell line. The format is cell-based. The note with it: Homo sapiens, Table 1, asterisk not explained.
For data set [3] the following is noted: known; cleavage of the base at the 6-position of the cytosine ring; cited from earlier work.
Another data set deals with THP-1 cells. Description: Giemsa stain of treated cells (morphology). The note with it: compared to vehicle control, FIGURE 10. Type of data set: cell-based.
For data set [4], the system named is Kasumi-1 cells. Description: Giemsa stain of treated cells (morphology). The note with it: compared with vehicle control, FIGURE 11. Type of data set: cell-based.
Another data set has as its system THP-1 leukemia cells. As to the kind of experiment: Growth inhibition of leukemia cell line compared with decitabine. Type of data set: cell-based. The note with it: THP-1, equimolar concentrations; FIGURE 7.
In another data set the test system is P388. Description: In vitro cytotoxicity, leukemia cell line. To be noted: Mus musculus, P388, read-out: In vitro cytotoxicity Leukemia P388*.
In another data set the target is T1, DNMT1 (Homo sapiens, UniProt P26358).
T1 construct: endogenous in cells; host or cells: Kasumi-1
As to the kind of experiment: Western blot of DNMT1 in Kasumi-1 cells. Type of data set: cell-based. To be noted: two concentrations, FIGURE 9. For orientation: Immunoblotting shows a protein as a band on a membrane.

For data set [5], the system named is DNA methyltransferase (DNMT). As to the kind of experiment: In vitro DNA methyltransferase inhibition in HCT-116 cells (EpiQuick DNA Methyltransferase Activity/Inhibition Assay Kit).
Data set [6] concerns Kasumi-1 cells. Description: Growth inhibition of leukemia cell line compared with decitabine. Type of data set: cell-based. The note with it: Kasumi-1, equimolar concentrations; FIGURE 8.
A short description of the next data set: Stability in water. Type of data set: physicochemical.
Data set [7] deals with L1210. To be noted: Table 3.
Where [8] appears, read: HL-60, Table 4, read-out: Growth Inhibition (GI50) HL-60.
Setting [9] is: NCI-H460, read-out: Growth Inhibition (GI50) NCI-H460.
[10] abbreviates: HCT-116, read-out: Growth Inhibition (GI50) HCT-116.
The mark [11] stands for this setting: MDA-MB-231, read-out: Growth Inhibition (GI50) MDA-MB-231.
Setting [12] is: NCI-H460, read-out: In vitro cytotoxicity NSCL NCI-H460.
Setting [13] is: HCT-116, read-out: In vitro cytotoxicity Colon HCT-116.
Where [14] appears, read: MDA-MB-231, read-out: In vitro cytotoxicity Breast MDA-MB-231.

Values joined by “and” are separate entries in the source; they are usually repeats but may differ in a detail not shown here. Identical values can stand only once. “Also recorded” adds a separate entry of the source. Like-named read-outs stand apart in the source and are kept apart here. A value given as a limit tells only on which side of the number the result lay.

T1 sequence (P26358 whole entry): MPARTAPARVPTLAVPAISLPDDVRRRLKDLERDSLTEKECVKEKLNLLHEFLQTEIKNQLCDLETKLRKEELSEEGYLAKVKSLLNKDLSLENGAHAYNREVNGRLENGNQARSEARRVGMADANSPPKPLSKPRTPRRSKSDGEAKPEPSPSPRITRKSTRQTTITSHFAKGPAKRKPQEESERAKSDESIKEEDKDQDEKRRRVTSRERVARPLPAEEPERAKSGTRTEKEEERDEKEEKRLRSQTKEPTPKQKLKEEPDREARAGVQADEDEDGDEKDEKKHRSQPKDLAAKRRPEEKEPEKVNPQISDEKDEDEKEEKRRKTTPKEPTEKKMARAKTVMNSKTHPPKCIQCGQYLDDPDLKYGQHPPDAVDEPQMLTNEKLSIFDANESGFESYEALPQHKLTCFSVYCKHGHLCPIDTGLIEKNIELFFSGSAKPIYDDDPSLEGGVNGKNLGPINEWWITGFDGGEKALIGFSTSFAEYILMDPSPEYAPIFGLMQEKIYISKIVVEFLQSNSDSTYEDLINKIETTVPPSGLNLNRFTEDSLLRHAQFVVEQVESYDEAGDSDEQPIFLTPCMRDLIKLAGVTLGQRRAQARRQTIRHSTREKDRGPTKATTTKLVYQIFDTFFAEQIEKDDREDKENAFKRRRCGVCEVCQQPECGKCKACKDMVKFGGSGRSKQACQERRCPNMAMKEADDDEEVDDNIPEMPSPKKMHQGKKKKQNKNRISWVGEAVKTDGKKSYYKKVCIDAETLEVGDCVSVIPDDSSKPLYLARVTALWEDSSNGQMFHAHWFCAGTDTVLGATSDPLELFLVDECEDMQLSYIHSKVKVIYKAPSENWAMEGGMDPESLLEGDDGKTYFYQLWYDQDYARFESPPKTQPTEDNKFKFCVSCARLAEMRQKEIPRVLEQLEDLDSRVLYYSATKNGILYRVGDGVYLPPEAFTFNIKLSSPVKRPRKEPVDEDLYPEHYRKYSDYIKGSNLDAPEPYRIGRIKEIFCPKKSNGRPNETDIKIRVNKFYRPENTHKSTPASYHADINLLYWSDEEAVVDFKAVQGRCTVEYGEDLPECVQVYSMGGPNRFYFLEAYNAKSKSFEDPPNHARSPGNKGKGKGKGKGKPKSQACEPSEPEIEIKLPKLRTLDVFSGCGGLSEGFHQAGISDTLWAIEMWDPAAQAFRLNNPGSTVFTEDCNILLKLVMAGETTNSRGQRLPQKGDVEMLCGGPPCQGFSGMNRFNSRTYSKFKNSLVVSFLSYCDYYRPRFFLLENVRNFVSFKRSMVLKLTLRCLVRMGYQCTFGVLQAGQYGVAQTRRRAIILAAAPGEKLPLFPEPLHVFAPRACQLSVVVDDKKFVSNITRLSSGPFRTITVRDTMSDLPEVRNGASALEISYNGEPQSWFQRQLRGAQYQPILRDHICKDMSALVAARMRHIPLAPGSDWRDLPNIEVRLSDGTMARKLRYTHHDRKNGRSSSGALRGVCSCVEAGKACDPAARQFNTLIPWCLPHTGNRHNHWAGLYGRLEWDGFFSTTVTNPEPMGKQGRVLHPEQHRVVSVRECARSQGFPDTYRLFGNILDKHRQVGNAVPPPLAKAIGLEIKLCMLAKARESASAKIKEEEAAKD

`NC1=NC(=O)N([C@@H]2O[C@H](CO)[C@@H](O)[C@H]2O)CN1` [5,6-dihydro-5-azacytidine, reference compound]: the GI50 is 0.03 µM in the data set on HL-60 (setting [8]), 4.84 µM in the data set with NCI-H460 (setting [9]), 21.4 µM with HCT-116 (setting [10]) and above 31.2 µM with MDA-MB-231 (setting [11]).

One may read the half-life as how long it takes for the measured level to halve. `Nc1ncn([C@@H]2O[C@H](CO)[C@@H](O)[C@H]2O)c(=O)n1` [Azacytidine, 5-azacytidine]: the half-life in data set [1] was 41 min. Besides, in the data set on HL-60 (setting [8]), the GI50 was found to be 0.44 µM. The IC50 in the data set with L1210 [2] is 1.7 to 2.4 µM.

For `Nc1ncn([C@H]2C[C@H](O)[C@@H](CO)O2)c(=O)n1` [Decitabine, 5-azadeoxycytidine, reference compound], the IC50 in the data set with ACHN is above 1000 µM; with OVCAR-8, above 1000 µM; with NCI-H460 (setting [12]) it was 13 to 44 µM; in the data set on HCT-116 (setting [13]), above 62.5 µM; in the data set with MDA-MB-231 (setting [14]), above 62.5 µM. The GI50 was 0.27 µM in the data set on HL-60 (HL-60, read-out: Growth Inhibition (GI50) HL-60); 13 µM with NCI-H460 (setting [9]); above 31.2 µM in the data set with HCT-116 (setting [10]); above 31.2 µM with MDA-MB-231 (setting [11]). For the same compound, the stability in water result in data set [3] was “unstable in water”. The “morphologic changes (Giemsa stain)” value in the data set with THP-1 cells and with Kasumi-1 cells [4] was “morphologic changes suggestive of cell differentiation” throughout.

As to `Nc1ncn([C@@H]2O[C@H](CO)[C@@H](O)C2(F)F)c(=O)n1` [NUC013, 2',2'-difluoro-5-azadeoxycytidine], the IC50 was 0.89 µM with ACHN; 0.48 µM with P388; 25.9 µM with OVCAR-8; 4.39 µM in the data set with NCI-H460 (setting [12]); 4.54 µM in the data set on HCT-116 (setting [13]); above 62.5 µM in the data set with MDA-MB-231 (setting [14]). In addition, the IC50 in the data set with L1210 [2] was 1.02 µM. Further, the figures for the “inhibitory effect on cell growth / cytoreduction compared with decitabine” value in the data set with THP-1 leukemia cells and with Kasumi-1 cells [6] were “stronger inhibitory effect; also recorded: stronger cytoreduction” and “slightly weaker effect; also recorded: weaker cytoreduction”, respectively. Also, at DNMT1, the “DNMT1 inhibition by Western blot compared with equimolar decitabine” value is given as “weaker DNMT1 inhibition”. For the same compound, the GI50 is 1.51 µM with HL-60 (setting [8]); 4.39 µM in the data set on NCI-H460 (setting [9]); 4.54 µM with HCT-116 (HCT-116); 4.54 µM with HCT-116 (setting [10]); above 31.2 µM in the data set with MDA-MB-231 (setting [11]). Moreover, the “Percent Inhibition of DNMT” value in [5] (1 µM, 24 hours, HCT-116 cells, one value per experiment (1-4)) was 61.73% and 35.77% and 62.63%. For the same compound, the “potency as a DNMTI relative to 5-azacytidine” value in [5] (colon cancer cells, FIGURE 6) is given as “approximately 10 fold”. Further, the “morphologic changes (Giemsa stain)” value in the data set with THP-1 cells and in the data set on Kasumi-1 cells [4] was “morphologic changes suggestive of cell differentiation” throughout.

`NC1=NC(=O)N([C@@H]2O[C@H](CO)[C@@H](O)C2(F)F)CN1` [NUC014, 2',2'-difluoro-5,6-dihydro-5-azadeoxycytidine]: the IC50 is above 31.2 µM in the data set with NCI-H460 (setting [12]), above 31.2 µM in the data set with HCT-116 (setting [13]), above 31.2 µM in the data set with MDA-MB-231 (setting [14]) and 90.6 µM in the data set with L1210 [2]. In the data set with L1210 [2], the “cytotoxicity against leukemia cell line L1210 (in words)” value is recorded as “moderate cytotoxicity”. Further, the “stability in an aqueous environment” value in “Stability in water” is recorded as “stable in an aqueous environment”. In the data set “Stability in water” (aqueous environment), the “hydrolytic cleavage at the 6-position of the cytosine” value is given as “does not undergo hydrolytic cleavage”.

For `O=c1ncccn1[C@@H]1O[C@H](CO)[C@@H](O)C1(F)F` [NUC019, 2'-deoxy-2',2'-difluorozebularine], the GI50 is 136 µM in the data set on NCI-H460 (setting [9]), 310 µM in the data set on HCT-116 (setting [10]) and 166 µM in the data set with MDA-MB-231 (setting [11]).

For the compound `O=c1ncccn1[C@H]1O[C@H](CO)[C@@H](O)C1(F)F` [NUC020], the GI50 in the data set on L1210 [7] was found to be 346 µM; in the data set with NCI-H460 (setting [12]), 136 µM; with HCT-116 (setting [13]), 279 µM; in the data set on MDA-MB-231 (setting [14]), 213 µM.

With `O=c1ncccn1[C@@H]1O[C@H](CO)[C@@H](O)[C@H]1O` [Zebularine, reference compound], the IC50 in the data set with NCI-H460 (setting [12]) turned out to be 99.1 µM; in the data set on HCT-116 (setting [13]), 47.9 µM; with MDA-MB-231 (setting [14]) it was 144 µM; in the data set on L1210 [2], 108 µM.

For the compound `Nc1ccn([C@@H]2O[C@H](CO)[C@@H](O)C2(F)F)c(=O)n1` [gemcitabine, reference compound], the GI50 with HL-60 (setting [8]) is 0.03 µM; in the data set on NCI-H460 (setting [9]) it was 0.02 µM; with HCT-116 (setting [10]) it was 0.01 µM; in the data set with MDA-MB-231 (setting [11]), 0.72 µM.

These data come from patent publication EP2970359B1, “FLUORINATED PYRIMIDINE ANALOGS AND METHODS OF USE THEREOF” (Epigenetics Pharma LLC, priority 2013, dated 2014).
